Data taken from patent US20250017964A1, “ENGINEERING OR INDUCING PDGF AND/OR PDGFR SIGNALING TO ENHANCE NK CELL THERAPY” (City of Hope, priority 2021, published 2025).

Columns and labels:
PDGFRB = PDGFRB mRNA levels by qPCR; type: cell-based, human; settings: primary NK cells, IL-15 10 ng/ml
Procedure: FIGS. 2A-2I. IL-15-induced PDGFRβ expression is mediated by PI3K/AKT signaling. (A-B) Primary NK cells were treated with IL-15 (10 ng/ml) for the indicated times. mRNA levels of PDGFRB at different time points (A) (n=3) or at 1 h (B) (n=10) were examined by qPCR. (C-D) Primary NK cells were pretreated with actinomycin D (ActD, 5., g/ml) (C) or cycloheximide (CHX, 20 μg/ml) (D) for 1 h, washed twice with RPMI-1640, and then treated with IL-15 (10 ng/ml) for 24 h. DMSO was used as a control. Expression levels of PDGFRβ were examined by flow cytometry (n=5). Data shown are representative histograms and percentage of inhibition with the equation: % inhibition=100×[1−(DMSO-inhibitor)/DMSO]. […] (G-I) Binding of p65 to the PDGFRB promoter in IL-15-treated NK cells (G) or resting NK cells (H) as determined by ChIP-qPCR or PCR (I) (n=3). […]
(§1) RNA was isolated using an RNeasy Mini Kit (QIAGEN) and reversely transcribed to cDNA with a PrimeScript RT Reagent Kit with gDNA Eraser (Takara Bio) according to the manufacturer's protocol. mRNA expression levels were analyzed using SYBR Green qPCR Master Mix and a QuantStudio 12K Flex Real-Time PCR System (both from Thermo Fisher Scientific). […]

PDGFRβ = PDGFRβ localisation: immunofluorescence and immunoblot of cell fractions; type: cell-based, human
Procedure: FIGS. 1A-1J. IL-15 induces PDGFRβ expression in human NK cells. (A-C) NK cells were purified from PBMCs of healthy donors and stimulated with IL-15 (10 ng/ml) for 24 h. Expression levels of PDGFRα and PDGFRβ were examined by flow cytometry. Data shown are representative dot plots (A), percentages (B), and mean fluorescence intensity (MFI) of PDGFRβ in NK cells (C) (n=20). Resting NK cells were used as the control. (D-E) NK cells were treated with various doses of IL-15 for 24 h (D) or with the same dose of IL-15 (10 ng/ml) at the indicated times (E). Data shown are the percentages of PDGFRβ^+ NK cells among total NK cells (n=5). (F) Immunofluorescence analysis of PDGFRβ expression on resting and IL-15-treated NK cells. Sodium-potassium ATPase was used as a cell membrane marker. Bar=20 μm. (G) Expression of PDGFRβ in the cytoplasmic, nuclear, and cell membrane fractions of NK cells determined by immunoblotting. […] Expression levels of PDGFRβ were then determined by flow cytometry. […]
as §1

IL-15: recombinant human IL-15 (200-15); recombinant murine IL-15 in the mouse NK cell test
mRNA levels of the PDGFRB gene (PDGFRB): increased significantly | PDGFRβ localisation by immunofluorescence (PDGFRβ; IL-15-treated versus resting NK cells): expressed on the membrane | PDGFRβ in cytoplasmic, nuclear and cell membrane fractions by immunoblotting (PDGFRβ; after stimulation by IL-15): enriched in the cytoplasm and translocated to the cell membrane
